The text below walks through data of US10376512B1, “Crystal of aniline pyrimidine compound of trifluoroethyl substituted indole and salt thereof” (CHIA TAI TIANQING PHARMACEUTICAL GROUP CO., LTD., priority 2018, dated 2019).

This series is described as follows: Stability test for crystals under accelerated conditions (light, high temperature, high humidity). Type of series: physicochemical. Conditions: light 5000 Lx±500 Lx; high temperature 60° C.±2° C.; high humidity 75% RH±5% RH; samples taken on the 5th, 10th and 30th day. The method, then:
The stability of the crystal according to the disclosure may be detected by placing the crystal in a high temperature, a high humidity, or a lighting condition. 40-60° C. may be selected for the high temperature, the relative humidity of 75%-92.5% RH may be selected for the high humidity condition, and 5000 Lux may be selected for the lighting condition. The crystal stability may be evaluated by investigating a plurality of data, such as content, total content of impurities, or water content, of the sample, and comprehensively evaluating the parameters according to the properties of the product.
The stability of the crystal according to the disclosure was investigated under accelerated test conditions according to the Guiding Principles for Stability Test of Crude Drugs and Pharmaceutical Preparations. The stabilities of the crystals obtained in Examples 1-8 were tested in a light environment at 5000 Lx±500 Lx, a high temperature environment at 60° C.±2° C., and a high humidity environment at 75% RH±5% RH, respectively. Samples were taken on the 5th day, the 10th day, and the 30th day, respectively, and the appearance properties, moisture contents, and total impurities of related substances of the samples were recorded for comparison with the initial data.

Structures are written as SMILES.

Consider `C=CC(=O)Nc1cc(Nc2nccc(-c3cn(CC(F)(F)F)c4ccccc34)n2)c(OC)cc1N(C)CCN(C)C` [Example 3], for which the “stability (appearance properties, moisture contents, total impurities of related substances compared with the initial data)” value is given as “better stability”.
